Reference: patent publication US7771977B2, “Alkane polyol dehydrogenase” (National University Corporation Nara Institute of Science …, priority 2006, dated 2010)

B1: Superdex 200: purified alkane polyol dehydrogenase of Pichia ofunaensis (SEQ ID NO: 1) after Superdex 200 gel filtration (protein, listed as Pichia ofunaensis)
chain: MKGLLYYKTGDIRYSEDVEEPEILSSHDVKIRVKFCGICGTDLKEYTYEGGPLFLPKPGSSDKISGLELPLCPGHEFCGVVEEVGESVTRVKPGDRVAVEATTHCSDAVHYGVHDMELCVACKNGSPNCCTHLSFCGLGGASGGFAEKVVYGEEHMLKLPDSIPFDIGALIEPLAVAWHAVECAKFKPGSTALVLGGGPIGLATILALQGHQAGRIVCSEPACIRREYAAKFGAEVFDPSQHDDVIHELKALLPENGGFDASFDCSGVPQTFTTSIEALAPGGMAVNVAIWGDHAIDFGAMCLTYQEKTCTGSMCYTVKDFEEVINALDKGLISISKARLMITGKVNLKDGVELGFKQLIEHKETNIKILVTPDEV

Experiments:
[1] = tested on: Pichia ofunaensis AKU4328 cells; test: Glycerol dehydrogenation activity of glycerol-induced Pichia ofunaensis cells; format: biochemical
Text: Pichia ofunaensis AKU4328 was pre-cultured in medium containing 4 g/L of ammonium chloride, 1 g/L of phosphoric acid 2 hydrogen 1 potassium, 1 g/L of phosphoric acid 1 hydrogen 2 potassium, 0.5 g/L of magnesium sulfate 7 hydrate, 1 g/L of yeast extract, and 1% glucose. Ten hours after the initiation of the main culture in induction medium consisting of a basal medium with 1% glycerol, the cells were harvested. Since the specific activity of glycerol was 3.6 U/mg (protein), it was confirmed that the same protein as the purified enzyme obtained in Example 1 was expressed by 7%.
In relation to the measurement of the enzyme activity, a reaction mixture containing a […] ammonium chloride/ammonia buffer (pH 9.0), 100 mM glycerol, 2.0 mM NAD^+ and an enzyme solution was subjected to a reaction at 25° C.; subsequently, the change, due to NADH formation, of absorbance (molecular absorption coefficient 6,220 M^−1 ·cm^−1) at 340 nm was measured. 1 U refers to the amount of enzyme that catalyzes the formation of 1 μmol of NADH per minute. […]
The activity at this time was measured by causing a reaction mixture containing a 100 mM ammonium chloride/ammonia buffer (pH 9.0), 100 mM glycerol, 2.0 mM NAD^+ and an enzyme solution to react at 25° C., then observing the change, due to NADH formation, of absorbance (molecular absorption coefficient 6,220 M^−1·cm^−1) at 340 nm. […]

[2] = tested on: alkane polyol dehydrogenase (purified enzyme); format: biochemical, Pichia ofunaensis; conditions: purified enzyme; substrate 100 mM; 2 mM NAD+; pH 8.0; 25° C.
Method: The reaction solutions were prepared using plural substrates with varied concentrations. Each solution contained a substrate, 2 mM NAD^+, and an enzyme, and was allowed to react in a 100 mM potassium phosphate buffer solution (pH 8.0) at 25° C. Then, changes in absorbance (molar absorption coefficient 6,220 M^−1·cm^−1) at 340 nm due to the NADH formation were measured. 1 U is defined as an enzyme amount for catalyzing 1 μmol NADH formation per minute.
The alkane polyol dehydrogenase obtained in Example 1 was utilized to measure the enzyme activities in the following manner.
1 U was defined as the amount of enzyme that catalyzes the formation of 1 μmol of NADH per minute.
Measurement was performed in the same manner as in the activity measurements described earlier in 4-1.
Such activity was measured by causing a reaction mixture containing 5 mM (R)-1,2-octanediol, 2 mM NAD^+ and enzyme to react in a 100 mM potassium phosphate buffer solution (pH 8.0) at 25° C., then observing the change, due to NADH formation, of absorbance (molecular absorption coefficient 6,220 M^−1 ·cm^−1) at 340 nm. 1 U was defined as the amount of enzyme that catalyzes the formation of 1 μmol of NADH per minute.

[3] = Enzyme activity of purification fractions with 100 mM glycerol; format: biochemical, Pichia ofunaensis; conditions: 2 mM NAD+, pH 8.0, 25° C., purification step
Method: The entire purification process was performed at 4° C., unless otherwise indicated. The cells (20 g wet cell weight) prepared as above in 1-1, were suspended in buffer solution A (100 mM potassium phosphate buffer solution (pH 7.0) and 1 mM dithiothreitol (hereinafter simply referred to as DTT)). The resulting suspension was mixed with 100 ml of glass beads, and disrupted with a bead beater (produced by BioSpec, Bartlesville, USA).
The obtained cell extract was allowed to adsorb to a DEAE-cellulose column (diameter 4.0 cm×height 3.5 cm, produced by Wako Pure Chemical Ind. Ltd., Osaka) that was pre-equilibrated with buffer solution A. Thereafter, the gradient of 0-1 M potassium chloride was applied to buffer solution A to elute protein at a flow rate of 1 ml/min.
The eluted active fractions were collected, and dialyzed against buffer solution A containing 40% saturated ammonium sulfate. […]
In connection with the enzyme activity, a reaction mixture containing 100 mM glycerol, 2 mM NAD^+ and enzyme was allowed to react in a 100 mM potassium phosphate buffer solution (pH 8.0) at 25° C.; subsequently, the change, due to NADH formation, of absorbance (molar absorption coefficient 6,220 M^−1·cm^−1) at 340 nm was measured and analyzed. […]

Row | Molecule | specific activity of the cells against glycerol ([1]; 1% glycerol induction, 100 mM glycerol, 2.0 mM NAD+, pH 9.0, 25° C.) | glycerol dehydrogenation activity per 1 kg of wet cell weight ([1]; per 1 kg wet cell weight) | Oxidative Activity [2] | Specific Activity [3]
1 | OCC(O)CO [Glycerol] | 3.6 U/mg (protein) | 1,300,000 U | 39.1 U/mg | 
2 | B1 |  |  |  | 51 U/mg
